Assay results reported in US11767316B2, “Non-fused thiophene derivatives and their uses” (ENYO PHARMA, priority 2018, dated 2023).

tested on: H1N1 (influenza A/New Caledonia/20/99); assay: Antiviral effect on A549 cells infected with H1N1 (MUNANA neuraminidase readout); type: cell-based; conditions: H1N1 A/New Caledonia/20/99 at MOI 0.1, 48 h post-infection, MUNANA fluorescence, read-out: IC50
Experimental: The antiviral effect of the compounds of the invention have been tested on A549 cell lines infected with H1N1 (influenza A/New Caledonia/20/99).
Human A549 cells (80,000 cells/well in a 96 well plate) were treated with a range of concentration of test compounds and immediately infected by H1N1 A/New Caledonia/20/99 virus (clinical isolate) at MOI of 0.1 in DMEM/1% Penicillin/streptomycin supplemented with 0.25 μg/ml TPCK trypsin (Sigma) and incubated at 37° C. in 5% CO2. 48 h post-infection, supernatants (25 μl) were collected and transferred into a 96-well black flat-bottom plate, mixed with 25 μl PBS with Ca++/Mg++(Thermo Fisher) and 50 μl of 2′-(4-Methylumbelliferyl)-α-D-N-acetylneuraminic acid sodium salt hydrate stock-solution (20 μM, MUNANA, Sigma). Plates were incubated 1 h at 37° C. and reaction is stopped by adding 100 μl of Stop Solution (glycine 0.1 M pH10.7/25% ethanol). The amount of fluorescent product released by MUNANA hydrolysis (4-MU) was measured in a Tecan spectrophotometer with excitation and emission wavelengths of 365 and 450 nm respectively.

Compound	IC50 [nM]
O=C(Nc1scc(C2CCc3ccccc3C2)c1C(=O)O)c1ccc(OC(F)F)cc1 (centres unmarked) [#174]	0.3
O=C(Nc1scc(C2CCc3ccccc3C2)c1C(=O)O)c1ccc(OC(F)F)cc1 (centres unmarked) [#175]	14
O=C(Nc1scc(C2CCc3ccccc3C2)c1C(=O)O)c1ccccc1 (centres unmarked) [#157]	7
O=C(Nc1scc(C2CCc3ccccc3C2)c1C(=O)O)c1ccc(F)cc1 (centres unmarked) [#172]	617
O=C(Nc1scc(C2CCc3ccccc3C2)c1C(=O)O)c1ccccc1 (centres unmarked) [#156]	185

same assay, conditions: Influenza A virus, H1N1, A549, 48 h, H1N1 A/New Caledonia/20/99 at MOI 0.1, 48 h post-infection, MUNANA fluorescence

Compound	IC50 [nM]
O=C(Nc1scc(C2CCc3ccccc3C2)c1C(=O)O)c1ccc(OC2CCOCC2)cc1 (centres unmarked) [#182]	3
O=C(Nc1scc(C2CCc3ccccc3C2)c1C(=O)O)c1ccc(N2CCCS2(=O)=O)cc1 (centres unmarked) [#184]	32
N#Cc1ccc(C(=O)Nc2scc(C3CCc4ccccc4C3)c2C(=O)O)cc1 (centres unmarked) [Compound #183, 2-[(4-Cyanobenzoyl)amino]-4-tetralin-2-yl-thiophene-3-carboxylic acid]	462

same assay, conditions: Influenza A virus, H1N1, A549, 48 h, H1N1 A/New Caledonia/20/99 at MOI 0.1, 48 h post-infection, MUNANA fluorescence, read-out: IC50

Compound	IC50 [nM]
O=C(Nc1scc(C2CCc3ccccc3C2)c1C(=O)O)c1ccc(NCC2CCOCC2)cc1 (centres unmarked) [#69]	3
O=C(Nc1scc(C2CCc3ccccc3C2)c1C(=O)O)c1ccc(NC2CCOCC2)cc1 (centres unmarked) [#52]	0.4
O=C(Nc1scc(C2CCc3ccccc3C2)c1C(=O)O)c1cccc(F)c1 (centres unmarked) [#169]	162
O=C(Nc1scc(C2CCc3ccccc3C2)c1C(=O)O)c1cccc(OC(F)F)c1 (centres unmarked) [#170]	18
O=C(Nc1scc(-c2ccc3c(c2)CCC3)c1C(=O)O)c1ccccc1 [#3]	280
O=C(Nc1scc(C2=Cc3ccccc3CC2)c1C(=O)O)c1ccccc1 [#185]	260
O=C(Nc1scc(C2CCc3ccccc3C2)c1C(=O)O)c1ccccc1CN1CCOCC1 (centres unmarked) [#130]	560
O=C(Nc1scc(C2CCc3ccccc3C2)c1C(=O)O)c1ccc(OC2CCC2)cc1 (centres unmarked) [#178]	122
O=C(Nc1scc(C2CCc3ccccc3C2)c1C(=O)O)c1ccc(C(F)(F)F)cc1 (centres unmarked) [#158]	7
O=C(Nc1scc(C2CCc3ccccc3C2)c1C(=O)O)c1ccc(NCC2CCS(=O)(=O)CC2)cc1 (centres unmarked) [#138]	22
CC(C)(C)Oc1ccc(C(=O)Nc2scc(C3CCc4ccccc4C3)c2C(=O)O)cc1 (centres unmarked) [#188]	15
COc1cc(C(=O)Nc2scc(C3CCc4ccccc4C3)c2C(=O)O)ccc1F (centres unmarked) [#164]	8
O=C(Nc1scc(C2CCc3ccccc3C2)c1C(=O)O)c1ccc2c(c1)OCCO2 (centres unmarked) [#176]	76
O=C(O)c1c(C2CCc3ccccc3C2)csc1NC(=O)C12CC(F)(C1)C2 (centres unmarked) [#193]	315
COc1cc(C(=O)Nc2scc(C3CCc4ccccc4C3)c2C(=O)O)cc(OC)c1NCC1CCOCC1 (centres unmarked) [#137]	4.2
O=C(Nc1scc(C2CCc3ccccc3C2)c1C(=O)O)c1ccc2c(c1)CCCO2 (centres unmarked) [#181]	2
O=C(Nc1sc(Cl)c(C2CCc3ccccc32)c1C(=O)O)c1ccccc1 (centres unmarked) [#49]	130
O=C(O)c1c(C2CCc3ccccc3C2)csc1NC(=O)C12CC(C1)C2 (centres unmarked) [#192]	347
CN(CC1CCOCC1)c1ccc(C(=O)Nc2scc(C3CCc4ccccc4C3)c2C(=O)O)cc1 (centres unmarked) [#132]	2
Cc1ccc(C(=O)Nc2scc(C3CCc4ccccc4C3)c2C(=O)O)cc1 (centres unmarked) [#166]	39
O=C(Nc1scc(C2CCc3ccccc32)c1C(=O)O)c1ccc(N2CCOCC2)cc1 (centres unmarked) [#56]	110
C[C@@H]1CN(c2ccc(C(=O)Nc3scc(C4CCc5ccccc5C4)c3C(=O)O)cc2)CCO1 (some centres unmarked) [#147]	8
O=C(Nc1scc(C2CCc3ccccc3C2)c1C(=O)O)c1ccccn1 (centres unmarked) [#186]	134
COc1ccccc1C(=O)Nc1scc(C2CCc3ccccc3C2)c1C(=O)O (centres unmarked) [#159]	100

Compound	IC50 [nM]
COc1cc(C(=O)Nc2scc(C3CCc4ccccc4C3)c2C(=O)O)ccc1NCC1CCOCC1 (centres unmarked) [#127]	1.8
O=C(Nc1scc(C2CCc3ccccc3C2)c1C(=O)O)c1ccc(N2CC3CCC(C2)O3)cc1 (centres unmarked) [#142]	0.3
COCCOc1ccc(C(=O)Nc2scc(C3CCc4ccccc4C3)c2C(=O)O)cc1 (centres unmarked) [#101]	44.6
O=C(Nc1scc(C2CCc3ccccc3C2)c1C(=O)O)c1ccc(N2C[C@H]3C[C@@H]2CO3)cc1 (some centres unmarked) [#141]	2.7
O=C(Nc1scc(C2CCc3ccccc3CC2)c1C(=O)O)c1ccccc1 [#122]	744
O=C(Nc1scc(C2CCc3ccccc3C2)c1C(=O)O)c1cnc(N2CCOCC2)nc1 (centres unmarked) [#89]	240
O=C(Nc1scc(C2CCc3ccccc3C2)c1C(=O)O)c1ccc(N2C3CCC2COC3)cc1 (centres unmarked) [#144]	4
O=C(Nc1scc(C2CCc3ccccc3C2)c1C(=O)O)c1ccc(NC2CCCOC2)cc1 (centres unmarked) [#67]	2
O=C(Nc1scc(C2CCc3ccccc3C2)c1C(=O)O)c1ccc2c(c1)CCO2 (centres unmarked) [#177]	35
O=C(Nc1scc(C2CCc3ccc(F)cc3C2)c1C(=O)O)c1ccccc1 (centres unmarked) [#189]	178
O=C(Nc1scc(C2CCc3ccccc3C2)c1C(=O)O)c1ccc(NCC2(O)CCOCC2)cc1 (centres unmarked) [#136]	30
O=C(Nc1scc(C2CCc3ccccc3C2)c1C(=O)O)c1cccc(N2CCOCC2)c1 (centres unmarked) [#70]	7.5
O=C(Nc1scc(C2CCc3c(F)cccc3C2)c1C(=O)O)c1ccccc1 (centres unmarked) [#190]	8
O=C(Nc1scc(-c2ccc3c(c2)CCCC3)c1C(=O)O)c1ccc(F)cc1 [#125]	237
O=C(Nc1scc(C2CCc3ccccc3C2)c1C(=O)O)c1ccccc1F (centres unmarked) [#163]	43
O=C(Nc1scc(C2CCc3ccccc3C2)c1C(=O)O)c1ccc(N2CC3CC(C2)O3)cc1 (centres unmarked) [#139]	15
COc1ccc(C(=O)Nc2scc(C3CCc4ccccc4C3)c2C(=O)O)cc1 (centres unmarked) [#154]	2.7
O=C(Nc1scc(C2CCc3ccccc3C2)c1C(=O)O)c1ccc(N2CCOCC2)cc1 (centres unmarked) [#68]	52
O=C(Nc1scc(C2CCc3ccccc3C2)c1C(=O)O)c1ccc(NCC2CCOCC2)c(O)c1 (centres unmarked) [#134]	24
COCCNc1ccc(C(=O)Nc2scc(C3CCc4ccccc4C3)c2C(=O)O)cc1 (centres unmarked) [#65]	4
COC1CN(c2ccc(C(=O)Nc3scc(C4CCc5ccccc5C4)c3C(=O)O)cc2)C1 (centres unmarked) [#53]	4
O=C(Nc1scc(C2CCc3ccccc3C2)c1C(=O)O)c1ccccc1N1CCOCC1 (centres unmarked) [#129]	460
O=C(Nc1scc(C2CCc3cc(F)ccc3C2)c1C(=O)O)c1ccccc1 (centres unmarked) [#191]	46
CS(=O)(=O)c1ccc(C(=O)Nc2scc(C3CCc4ccccc4C3)c2C(=O)O)cc1 (centres unmarked) [#165]	900

Compound	IC50 [nM]
O=C(Nc1scc(C2CCc3ccccc3C2)c1C(=O)O)c1ccc(Cl)cc1 (centres unmarked) [#161]	16
COC1CN(c2cccc(C(=O)Nc3scc(C4CCc5ccccc5C4)c3C(=O)O)c2)C1 (centres unmarked) [#93]	8
O=C(Nc1sc(Cl)c(C2Cc3ccccc3C2)c1C(=O)O)c1ccccc1 [#8]	187
COCCCNc1ccc(C(=O)Nc2scc(C3CCc4ccccc4C3)c2C(=O)O)cc1 (centres unmarked) [#64]	3.3
O=C(Nc1sc(C2CC2)c(C2Cc3ccccc3C2)c1C(=O)O)c1ccccc1 [#51]	52
O=C(Nc1scc(C2CCc3ccccc32)c1C(=O)O)c1ccc(NC2CCOCC2)cc1 (centres unmarked) [#55]	33.8
O=C(Nc1scc(C2CCc3ccccc3C2)c1C(=O)O)c1ccc(NCC2CCCCC2)cc1 (centres unmarked) [#128]	0.8
O=C(Nc1scc(C2CCc3ccccc3C2)c1C(=O)O)c1ccc(OC(F)(F)F)cc1 (centres unmarked) [#153]	0.4
COc1ccc(C(=O)Nc2scc(C3CCc4ccccc4C3)c2C(=O)O)cc1OC (centres unmarked) [#155]	3
O=C(Nc1scc(C2CCc3ccccc3C2)c1C(=O)O)c1ccc(N2CCCC2=O)cc1 (centres unmarked) [#168]	11
O=C(Nc1scc(C2CCCc3ccccc32)c1C(=O)O)c1ccc(F)cc1 (centres unmarked) [#126]	237
C[C@@H]1COCCN1c1ccc(C(=O)Nc2scc(C3CCc4ccccc4C3)c2C(=O)O)cc1 (some centres unmarked) [#145]	32
O=C(Nc1scc(C2CCc3ccccc3C2)c1C(=O)O)c1ccc(NCCCCO)cc1 (centres unmarked) [#133]	50
O=C(Nc1scc(C2CCc3ccccc3C2)c1C(=O)O)c1cccc(Cl)c1 (centres unmarked) [#167]	75
COC1CN(c2ccc(C(=O)Nc3scc(C4CCc5ccccc54)c3C(=O)O)cc2)C1 (centres unmarked) [#58]	100
O=C(Nc1scc(C2CCc3ccccc3C2)c1C(=O)O)c1ccc(NC(CO)C2CCOCC2)cc1 (centres unmarked) [#131]	110
COCCCCNc1ccc(C(=O)Nc2scc(C3CCc4ccccc4C3)c2C(=O)O)cc1 (centres unmarked) [#135]	3
C[C@H]1CN(c2ccc(C(=O)Nc3scc(C4CCc5ccccc5C4)c3C(=O)O)cc2)CCO1 (some centres unmarked) [#143]	4
C[C@@H]1CN(c2ccc(C(=O)Nc3scc(C4CCc5ccccc5C4)c3C(=O)O)cc2)C[C@H](C)O1 (some centres unmarked) [#148]	24
COc1ccc(C(=O)Nc2scc(C3CCc4ccccc4C3)c2C(=O)O)nc1 (centres unmarked) [#187]	15
C[C@@H]1COC[C@H](C)N1c1ccc(C(=O)Nc2scc(C3CCc4ccccc4C3)c2C(=O)O)cc1 (some centres unmarked) [#149]	29
O=C(Nc1scc(C2Cc3ccccc3C2)c1C(=O)O)c1ccccc1 [#7]	144
O=C(Nc1scc(C2CCc3ccccc3C2)c1C(=O)O)c1ccccc1O (centres unmarked) [#160]	147
CC1(C)Cc2cc(C(=O)Nc3scc(C4CCc5ccccc5C4)c3C(=O)O)ccc2O1 (centres unmarked) [#179]	29
